Patent US11578079B2, “SUMO inhibitor compounds and uses thereof” (CITY OF HOPE, priority 2018, dated 2023)

Assays:
c-Myc = c-Myc activity (Table I, biological activities); parameters: key: + (less active); ++ (active); +++ (most active)
SUMO = biological target: T1, SUMO (Homo sapiens, UniProt Q9UBT2); experiment: SUMO activity (Table I, biological activities); assay type: biochemical; parameters: key: + (less active); ++ (active); +++ (most active)
T1 sequence (Q9UBT2 1-640): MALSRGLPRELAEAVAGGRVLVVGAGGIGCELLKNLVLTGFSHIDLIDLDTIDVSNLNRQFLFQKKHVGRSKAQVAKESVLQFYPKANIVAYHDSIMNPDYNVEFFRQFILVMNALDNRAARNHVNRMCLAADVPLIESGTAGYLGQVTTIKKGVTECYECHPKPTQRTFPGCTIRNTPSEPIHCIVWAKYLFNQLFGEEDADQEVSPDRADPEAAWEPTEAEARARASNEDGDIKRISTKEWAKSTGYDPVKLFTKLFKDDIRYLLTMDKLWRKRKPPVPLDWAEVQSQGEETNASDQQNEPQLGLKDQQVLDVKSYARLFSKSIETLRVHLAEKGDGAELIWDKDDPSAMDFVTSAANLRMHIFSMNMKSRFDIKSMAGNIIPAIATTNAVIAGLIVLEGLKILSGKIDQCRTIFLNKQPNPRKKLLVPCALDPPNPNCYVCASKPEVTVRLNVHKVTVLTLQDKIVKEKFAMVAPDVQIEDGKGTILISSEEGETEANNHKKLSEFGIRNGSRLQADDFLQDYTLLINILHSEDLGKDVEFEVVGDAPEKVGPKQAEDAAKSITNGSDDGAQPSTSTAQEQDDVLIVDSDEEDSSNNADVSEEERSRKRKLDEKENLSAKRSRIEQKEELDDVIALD
T1 sequence (Q9UBE0 1-346 partner): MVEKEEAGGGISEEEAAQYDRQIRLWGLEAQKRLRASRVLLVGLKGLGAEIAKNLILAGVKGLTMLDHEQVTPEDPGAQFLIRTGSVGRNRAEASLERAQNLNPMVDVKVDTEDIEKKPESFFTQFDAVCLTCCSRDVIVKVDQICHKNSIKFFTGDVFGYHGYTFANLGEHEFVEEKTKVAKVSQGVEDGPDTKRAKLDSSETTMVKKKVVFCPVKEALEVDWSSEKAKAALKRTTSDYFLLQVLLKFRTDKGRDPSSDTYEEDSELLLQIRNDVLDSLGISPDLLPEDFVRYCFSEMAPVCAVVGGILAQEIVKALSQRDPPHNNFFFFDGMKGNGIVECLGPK

Structure (SMILES) | c-Myc (c-Myc) | SUMO (SUMO)
COC(=O)C1=C(C(N)=O)C2C=CC1(C(Cc1ccccc1)Nc1ccccc1)O2 (stereo not shown) [Compound 151] | + | ++
COC(=O)C1=C(C(=O)NC2CCCCC2)C2C=CC1(C(Cc1ccccc1)Nc1ccccc1)O2 (stereo not shown) [Compound 160] | + | +
COC(=O)C1=C(C(=O)NC(C)(C)C)C2C=CC1(C(Cc1ccccc1)Nc1ccccc1)O2 (stereo not shown) [Compound 161] | + | +
COC(=O)C1=C(C(=O)Nc2ccccc2)C2C=CC1(C(Cc1ccccc1)Nc1ccccc1)O2 (stereo not shown) [Compound 163] | + | ++
COC(=O)C1=C(C(=O)OC)C2(C(Nc3ccccc3)c3ccccc3)C=CC1O2 (stereo not shown) [Compound 165] | + | ++
COC(=O)C1=C(C(=O)Nc2ccc(F)cc2)C2C=CC1(C(Cc1ccccc1)Nc1ccccc1)O2 (stereo not shown) [Compound 166] | + | ++
COC(=O)C1=C(C(=O)OC)C2(C(Cc3ccccc3)Nc3cc(F)cc(F)c3)C=CC1O2 (stereo not shown) [Compound 167] | + | ++
COC(=O)C1=C(C(=O)OC)C2(C(Cc3ccccc3)Nc3c(F)cccc3F)C=CC1O2 (stereo not shown) [Compound 169] | + | ++
COC(=O)C1=C(C(=O)OC)C2(C(Cc3ccccc3)Nc3ccc(F)cc3F)C=CC1O2 (stereo not shown) [Compound 171] | ++ | ++
CC#CC(Nc1ccccc1)C12C=CC(O1)C(C(=O)OC)=C2C(=O)OC (stereo not shown) [Compound 172] | ++ | ++
C=CCCC(Nc1ccccc1)C12C=CC(O1)C(C(=O)Nc1ccc(OC)cc1)=C2C(=O)OC (stereo not shown) [Compound 176] | + | ++
C=CCCC(Nc1ccccc1)C12C=CC(O1)C(C(N)=O)=C2C(=O)OC (stereo not shown) [Compound 177] | + | +
COC(=O)C1=C(C(=O)Nc2ccc(OC)cc2)C2C=CC1(C(Nc1ccccc1)C1CCC1)O2 (stereo not shown) [Compound 178] | + | ++
COC(=O)C1=C(C(N)=O)C2C=CC1(C(Nc1ccccc1)C1CCC1)O2 (stereo not shown) [Compound 179] | + | +
COC(=O)C1=C(C(=O)Nc2cccc(OC)c2)C2C=CC1(C(Cc1ccccc1)Nc1ccccc1)O2 (stereo not shown) [Compound 180] | + | +
C=CCCC(Nc1ccccc1)C12C=CC(O1)C(C(=O)OC)=C2C(=O)OC (stereo not shown) [Compound 181] | + | ++
COC(=O)C1=C(C(=O)OC)C2(C(Nc3ccccc3)C3CCC3)C=CC1O2 (stereo not shown) [Compound 184] | + | ++
COC(=O)C1=C(C(=O)OC)C2(C(Nc3ccccc3)C3CCCC3)C=CC1O2 (stereo not shown) [Compound 186] | + | ++
COC(=O)C1=C(C(=O)OC)C2(C(CCc3ccccc3)Nc3ccccc3)C=CC1O2 (stereo not shown) [Compound 191] | + | ++
COC(=O)C1=C(C(=O)NC2CCN(C)CC2)C2C=CC1(C(Cc1ccccc1)Nc1ccccc1)O2 (stereo not shown) [Compound 195] | ++ | +++
COC(=O)C1=C(C(=O)NNc2ccccc2)C2C=CC1(C(Cc1ccccc1)Nc1ccccc1)O2 (stereo not shown) [Compound 200] | ++ | ++
COC(=O)C1=C(C(=O)NCc2ccncc2)C2C=CC1(C(Cc1ccccc1)Nc1ccccc1)O2 (stereo not shown) [Compound 201] | + | ++
COC(=O)C1=C(C(=O)Nc2ccc(OC)cc2)C2C=CC1(C(Cc1ccccc1)Nc1cc(F)cc(F)c1)O2 (stereo not shown) [Compound 204] | + | +++
COC(=O)C1=C(C(=O)NNc2ccccc2)C2C=CC1(C(Cc1ccccc1)Nc1cc(F)cc(F)c1)O2 (stereo not shown) [Compound 205] | ++ | ++
CNC(=O)C1=C(C(=O)OC)C2(C(Cc3ccccc3)Nc3cc(F)cc(F)c3)C=CC1O2 (stereo not shown) [Compound 208] | + | ++
COC(=O)C1=C(C(=O)OC)C2(C(Cc3ccccc3)Nc3cc(F)cc(Cl)c3)C=CC1O2 (stereo not shown) [Compound 209] | + | ++

Structure (SMILES) | c-Myc (c-Myc) | SUMO (SUMO)
CCCCC(Nc1cc(F)cc(F)c1)C12C=CC(O1)C(C(=O)OC)=C2C(=O)OC (stereo not shown) [Compound 212] | + | +++
COC(=O)C1=C(C(=O)O)C2C=CC1(C(Cc1ccccc1)Nc1cc(F)cc(Cl)c1)O2 (stereo not shown) [Compound 214] | + | ++
COC(=O)C1=C(C(=O)NNc2ccccc2)C2C=CC1(C(Cc1ccccc1)Nc1cc(F)cc(Cl)c1)O2 (stereo not shown) [Compound 215] | + | ++
COC(=O)C1=C(C(=O)NCc2ccncc2)C2C=CC1(C(Cc1ccccc1)Nc1cc(F)cc(Cl)c1)O2 (stereo not shown) [Compound 216] | ++ | ++
COC(=O)C1=C(C(N)=O)C2C=CC1(C(Cc1ccccc1)Nc1cc(F)cc(Cl)c1)O2 (stereo not shown) [Compound 217] | ++ | +
COC(=O)C1=C(C(=O)Nc2ccc(OC)nc2)C2C=CC1(C(Cc1ccccc1)Nc1cc(F)cc(Cl)c1)O2 (stereo not shown) [Compound 218] | + | +++
COC(=O)C1=C(C(=O)NC2CCN(C)CC2)C2C=CC1(C(Cc1ccccc1)Nc1cc(F)cc(Cl)c1)O2 (stereo not shown) [Compound 219] | ++ | ++
COC(=O)C1=C(C(=O)Nc2ccncc2)C2C=CC1(C(Cc1ccccc1)Nc1cc(F)cc(Cl)c1)O2 (stereo not shown) [Compound 220] | + | ++
COC(=O)C1=C(C(=O)NNc2ccccn2)C2C=CC1(C(Cc1ccccc1)Nc1ccccc1)O2 (stereo not shown) [Compound 221] | + | ++
COC(=O)C1=C(C(=O)Nc2cccnc2)C2C=CC1(C(Cc1ccccc1)Nc1ccccc1)O2 (stereo not shown) [Compound 223] | + | ++
COC(=O)C1=C(C(=O)NCCN(C)C)C2C=CC1(C(Cc1ccccc1)Nc1ccccc1)O2 (stereo not shown) [Compound 224] | ++ | +++
COC(=O)C1=C(C(=O)NC2CCNCC2)C2C=CC1(C(Cc1ccccc1)Nc1ccccc1)O2 (stereo not shown) [Compound 225] | ++ | +++
COC(=O)C1=C(C(=O)NCCN2CCOCC2)C2C=CC1(C(Cc1ccccc1)Nc1cc(F)cc(Cl)c1)O2 (stereo not shown) [Compound 226] | ++ | +++
COC(=O)C1=C(C(=O)NCCN(C)C)C2C=CC1(C(Cc1ccccc1)Nc1cc(F)cc(Cl)c1)O2 (stereo not shown) [Compound 227] | + | +++
COC(=O)C1=C(C(=O)NC2CCN(C)C2)C2C=CC1(C(Cc1ccccc1)Nc1cc(F)cc(Cl)c1)O2 (stereo not shown) [Compound 238] | ++ | +++
COC(=O)C1=C(C(=O)NC2CCN(C)C2)C2C=CC1(C(Cc1ccccc1)Nc1ccccc1)O2 (stereo not shown) [Compound 239] | + | +++
COC(=O)C1=C(C(=O)NC2CCN(C)CC2)C2C=CC1(C(Cc1ccccc1)Nc1cc(F)cc(F)c1)O2 (stereo not shown) [Compound 240] | + | ++
COC(=O)C1=C(C(=O)Nc2cccnc2)C2C=CC1(C(Cc1ccccc1)Nc1cc(F)cc(F)c1)O2 (stereo not shown) [Compound 241] | ++ | ++
COC(=O)C1=C(C(=O)NC2CCN(C(=O)OC(C)(C)C)CC2)C2C=CC1(C(Cc1ccccc1)Nc1cc(F)cc(F)c1)O2 (stereo not shown) [Compound 242] | + | ++
COC(=O)C1=C(C(=O)NC(C)C(N)=O)C2C=CC1(C(Cc1ccccc1)Nc1cc(F)cc(F)c1)O2 (stereo not shown) [Compound 243] | + | ++
COC(=O)CNC(=O)C1=C(C(=O)OC)C2(C(Cc3ccccc3)Nc3cc(F)cc(F)c3)C=CC1O2 (stereo not shown) [Compound 245] | ++ | +++
CCOc1cccc(NC(Cc2ccccc2)C23C=CC(O2)C(C(=O)NC2CCN(C)CC2)=C3C(=O)OC)c1 (stereo not shown) [Compound 247] | + | +++
CCOc1cccc(NC(Cc2ccccc2)C23C=CC(O2)C(C(=O)NC2CCN(C)C2)=C3C(=O)OC)c1 (stereo not shown) [Compound 248] | ++ | +++
CCOc1cccc(NC(Cc2ccccc2)C23C=CC(O2)C(C(N)=O)=C3C(=O)OC)c1 (stereo not shown) [Compound 249] | + | ++
CCOc1cccc(NC(Cc2ccccc2)C23C=CC(O2)C(C(=O)NCCN(C)C)=C3C(=O)OC)c1 (stereo not shown) [Compound 251] | + | +++
COC(=O)C1=C(C(=O)OC)C2(C(Cc3ccc(-c4cc[nH]n4)cc3)Nc3ccccc3)C=CC1O2 (stereo not shown) [Compound 698] |  | +++
